Measured values reported in ChEMBL document CHEMBL1201862, “PubChem BioAssay data set” (2004).
Calls of active or inactive are those of the source.

Legend:
Vero = assay: viability of Vero cells under compound – cytotoxicity control for flavivirus capping enzyme inhibitors (AID 588742); format: functional; conditions: Chlorocebus sabaeus
HEK293 [1] = assay: cells; format: functional, cell-based; conditions: Homo sapiens
HEK293 [2] = assay: inhibition of NOD1-driven NF-kB reporter – cell-based, luminescence, uHTS, primary screen (AID 1578); format: functional; conditions: Homo sapiens
HEK293 [3] = assay: cells; format: functional, cell-based; conditions: Homo sapiens; remark: listed apart in the source
[4] = biological target: T1, High affinity choline transporter 1 (Homo sapiens, UniProt Q9GZV3); assay: human choline transporter blockers, potency – cell-based, 5-point CRC, membrane potential dye, dose response (AID 504840); format: functional
T1 sequence (Q9GZV3 whole entry): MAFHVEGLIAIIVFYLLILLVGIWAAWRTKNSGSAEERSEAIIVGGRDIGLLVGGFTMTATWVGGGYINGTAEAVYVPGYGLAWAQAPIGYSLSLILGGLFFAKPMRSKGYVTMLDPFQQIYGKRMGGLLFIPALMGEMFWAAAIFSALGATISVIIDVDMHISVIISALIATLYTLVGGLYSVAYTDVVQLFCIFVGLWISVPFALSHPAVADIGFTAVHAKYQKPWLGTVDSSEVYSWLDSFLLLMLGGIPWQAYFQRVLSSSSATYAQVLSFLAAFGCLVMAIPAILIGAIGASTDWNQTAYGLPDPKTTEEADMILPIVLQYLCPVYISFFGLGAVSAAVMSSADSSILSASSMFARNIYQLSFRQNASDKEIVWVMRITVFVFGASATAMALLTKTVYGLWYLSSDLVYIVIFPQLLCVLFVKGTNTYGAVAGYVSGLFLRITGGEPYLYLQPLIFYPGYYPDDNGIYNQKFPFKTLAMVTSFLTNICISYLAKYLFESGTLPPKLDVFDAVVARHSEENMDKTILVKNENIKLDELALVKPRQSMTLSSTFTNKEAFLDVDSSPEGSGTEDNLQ

HEK293 [5] = assay: NOD2 signaling inhibitors in MDP-stimulated cells, cell-based, uHTS, luminescence (AID 2001); format: functional; conditions: Homo sapiens
BJ [6] = assay: cells; format: functional, cell-based; conditions: Homo sapiens
Cytochrome P450 2D6 = Cytochrome P450 2D6 (Homo sapiens, UniProt P10635);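 further: CYP2D6 member of a cytochrome P450 panel assay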
BJ [7] = assay: BJ-TERT-LT-ST fibroblast viability loss – cell-based, RAS-independent, luminescence, dose response (AID 1935); format: functional; conditions: Homo sapiens;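 further: BJ fibroblasts immortalized with TERT plus LT and ST oncogenes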
[8] = non-specific 3'UTR reporter inhibition in Clone20-Shn3RL – cell-based, Renilla luciferase, cherry-picked, counter-screen for Shn3 inhibitor project, dose response (AID 624133); format: functional
[9] = loss of viability in HepG2 cells – cell-based, CellTiter-Glo, cherry-picked, cytotoxicity control for Shn3 inhibitor project, dose response (AID 624134); format: functional
Fatty acid synthase [10] = biological target: T2, Fatty acid synthase (Homo sapiens, UniProt P49327); assay: inhibition of human FAS-TE enzyme activity – biochemical, kinetic fluorescence intensity, dose response (AID 624326); format: functional;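 further: rate of fluorescence rise from hydrolysis of a fluorogenic O-methyl fluorescein ester substrate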
T2 sequence (P49327 whole entry): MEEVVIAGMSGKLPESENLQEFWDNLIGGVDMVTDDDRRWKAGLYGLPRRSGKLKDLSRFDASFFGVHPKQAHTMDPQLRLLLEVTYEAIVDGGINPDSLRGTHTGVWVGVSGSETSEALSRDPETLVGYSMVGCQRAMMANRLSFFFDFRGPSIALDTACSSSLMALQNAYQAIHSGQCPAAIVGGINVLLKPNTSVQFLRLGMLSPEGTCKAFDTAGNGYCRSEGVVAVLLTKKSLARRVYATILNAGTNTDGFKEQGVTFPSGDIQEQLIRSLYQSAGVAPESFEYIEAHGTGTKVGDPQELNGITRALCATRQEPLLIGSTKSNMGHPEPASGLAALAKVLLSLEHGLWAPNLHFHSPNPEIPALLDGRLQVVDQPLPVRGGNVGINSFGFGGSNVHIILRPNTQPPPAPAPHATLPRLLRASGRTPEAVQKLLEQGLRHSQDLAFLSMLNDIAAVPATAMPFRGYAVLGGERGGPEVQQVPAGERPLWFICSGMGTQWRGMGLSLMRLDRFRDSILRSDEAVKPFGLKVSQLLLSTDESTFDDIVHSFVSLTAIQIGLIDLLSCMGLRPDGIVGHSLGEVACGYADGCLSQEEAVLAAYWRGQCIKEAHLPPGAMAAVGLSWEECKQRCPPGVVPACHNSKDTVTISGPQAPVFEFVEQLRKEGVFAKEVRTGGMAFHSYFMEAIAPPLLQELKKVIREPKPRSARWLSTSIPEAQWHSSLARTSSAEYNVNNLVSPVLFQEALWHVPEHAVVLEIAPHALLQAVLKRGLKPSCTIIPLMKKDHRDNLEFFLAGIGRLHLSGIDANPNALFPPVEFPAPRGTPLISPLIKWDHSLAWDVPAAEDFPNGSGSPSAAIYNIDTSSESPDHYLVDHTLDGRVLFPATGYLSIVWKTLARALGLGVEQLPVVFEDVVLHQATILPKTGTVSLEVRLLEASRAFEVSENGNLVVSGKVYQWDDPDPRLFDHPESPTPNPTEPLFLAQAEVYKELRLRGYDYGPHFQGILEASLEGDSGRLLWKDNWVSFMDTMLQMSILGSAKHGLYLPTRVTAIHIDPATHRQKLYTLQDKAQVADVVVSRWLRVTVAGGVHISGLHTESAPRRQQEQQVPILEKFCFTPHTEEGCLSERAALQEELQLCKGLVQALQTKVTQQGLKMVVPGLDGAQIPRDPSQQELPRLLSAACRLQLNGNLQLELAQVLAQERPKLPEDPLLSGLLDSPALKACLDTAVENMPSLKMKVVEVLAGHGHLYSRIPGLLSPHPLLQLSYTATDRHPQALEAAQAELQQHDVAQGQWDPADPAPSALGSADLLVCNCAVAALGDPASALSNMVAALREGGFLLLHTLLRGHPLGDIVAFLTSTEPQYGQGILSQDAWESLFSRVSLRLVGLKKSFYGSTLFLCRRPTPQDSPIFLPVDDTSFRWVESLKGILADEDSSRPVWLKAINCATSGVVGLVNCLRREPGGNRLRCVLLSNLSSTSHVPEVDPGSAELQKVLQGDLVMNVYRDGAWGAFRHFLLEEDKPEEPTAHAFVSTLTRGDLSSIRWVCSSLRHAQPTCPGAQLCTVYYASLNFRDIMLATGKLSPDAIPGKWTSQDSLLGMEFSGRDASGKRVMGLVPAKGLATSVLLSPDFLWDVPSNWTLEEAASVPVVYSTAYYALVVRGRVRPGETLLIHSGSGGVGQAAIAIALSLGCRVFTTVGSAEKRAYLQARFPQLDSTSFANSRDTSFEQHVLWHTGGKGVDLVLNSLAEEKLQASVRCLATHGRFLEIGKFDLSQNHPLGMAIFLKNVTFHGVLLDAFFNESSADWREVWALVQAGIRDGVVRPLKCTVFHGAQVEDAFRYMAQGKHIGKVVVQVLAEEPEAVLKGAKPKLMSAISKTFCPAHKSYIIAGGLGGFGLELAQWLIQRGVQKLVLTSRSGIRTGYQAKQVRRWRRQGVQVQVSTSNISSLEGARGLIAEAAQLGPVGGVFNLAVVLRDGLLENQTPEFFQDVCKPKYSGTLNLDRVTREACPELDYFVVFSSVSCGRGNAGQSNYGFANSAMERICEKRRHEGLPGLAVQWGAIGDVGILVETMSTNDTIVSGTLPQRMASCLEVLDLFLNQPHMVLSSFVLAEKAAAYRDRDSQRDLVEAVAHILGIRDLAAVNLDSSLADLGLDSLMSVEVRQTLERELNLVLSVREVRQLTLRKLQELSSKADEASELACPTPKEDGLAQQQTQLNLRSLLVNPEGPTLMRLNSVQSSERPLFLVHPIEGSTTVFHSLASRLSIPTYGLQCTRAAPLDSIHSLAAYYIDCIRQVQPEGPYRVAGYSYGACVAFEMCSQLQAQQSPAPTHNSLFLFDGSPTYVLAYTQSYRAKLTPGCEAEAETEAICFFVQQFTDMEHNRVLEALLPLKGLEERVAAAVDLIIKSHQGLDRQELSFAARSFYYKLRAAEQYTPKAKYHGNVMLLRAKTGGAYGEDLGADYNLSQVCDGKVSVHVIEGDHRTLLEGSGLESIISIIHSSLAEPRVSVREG

[11] = reduction of Shn3 3'UTR-driven luciferase in osteoblasts – cell-based, Clone20 osteoblasts, firefly luciferase, cherry-picked, dose response (AID 624132); format: functional;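 further: firefly luciferase luminescence from reporter carrying the Shn3 3'UTR in osteoblasts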
Beta-galactosidase = Beta-galactosidase (Escherichia coli, UniProt Q8VNN2); assay: PubChem AID 485352; format: functional
Chain of Beta-galactosidase (Q8VNN2 whole entry): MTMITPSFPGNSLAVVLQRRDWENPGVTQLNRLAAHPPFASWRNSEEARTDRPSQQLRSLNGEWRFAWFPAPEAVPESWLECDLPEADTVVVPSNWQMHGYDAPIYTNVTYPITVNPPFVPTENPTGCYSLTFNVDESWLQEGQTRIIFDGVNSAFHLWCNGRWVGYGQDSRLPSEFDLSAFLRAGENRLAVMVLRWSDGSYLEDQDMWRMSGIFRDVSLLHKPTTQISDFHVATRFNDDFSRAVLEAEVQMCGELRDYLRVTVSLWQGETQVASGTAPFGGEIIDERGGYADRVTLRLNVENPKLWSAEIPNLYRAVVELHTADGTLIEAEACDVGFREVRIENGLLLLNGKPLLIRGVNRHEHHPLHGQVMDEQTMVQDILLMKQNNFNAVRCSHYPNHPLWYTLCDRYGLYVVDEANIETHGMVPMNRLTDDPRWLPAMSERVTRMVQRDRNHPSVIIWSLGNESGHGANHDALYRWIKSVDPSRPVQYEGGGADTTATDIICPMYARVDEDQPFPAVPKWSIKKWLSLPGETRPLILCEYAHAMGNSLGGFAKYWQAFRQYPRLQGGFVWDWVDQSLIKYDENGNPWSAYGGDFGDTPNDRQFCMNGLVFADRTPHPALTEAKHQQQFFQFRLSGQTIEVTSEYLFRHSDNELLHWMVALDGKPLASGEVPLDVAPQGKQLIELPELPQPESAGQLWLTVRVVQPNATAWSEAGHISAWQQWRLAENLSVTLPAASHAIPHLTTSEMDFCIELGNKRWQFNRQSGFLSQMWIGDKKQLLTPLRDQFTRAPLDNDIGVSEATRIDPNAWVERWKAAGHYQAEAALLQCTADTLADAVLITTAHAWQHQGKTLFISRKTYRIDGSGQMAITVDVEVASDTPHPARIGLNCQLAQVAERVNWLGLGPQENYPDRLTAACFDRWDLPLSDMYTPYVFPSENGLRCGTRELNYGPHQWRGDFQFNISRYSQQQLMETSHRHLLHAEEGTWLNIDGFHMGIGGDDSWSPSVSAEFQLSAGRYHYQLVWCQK

[12] = biological target: T3, Sentrin-specific protease 8 (Homo sapiens, UniProt Q96LD8); format: functional
T3 sequence (Q96LD8 whole entry): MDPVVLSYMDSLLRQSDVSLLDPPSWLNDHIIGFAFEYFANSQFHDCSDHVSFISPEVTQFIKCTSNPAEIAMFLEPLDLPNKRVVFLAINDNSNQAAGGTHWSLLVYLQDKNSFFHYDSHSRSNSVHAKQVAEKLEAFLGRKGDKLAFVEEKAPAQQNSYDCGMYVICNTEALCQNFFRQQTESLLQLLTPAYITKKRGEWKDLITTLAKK

Cytochrome P450 3A4 = Cytochrome P450 3A4 (Homo sapiens, UniProt P08684);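 further: CYP3A4 tested as one member of a cytochrome P450 panel screen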
Chain of Cytochrome P450 3A4 (P08684 whole entry): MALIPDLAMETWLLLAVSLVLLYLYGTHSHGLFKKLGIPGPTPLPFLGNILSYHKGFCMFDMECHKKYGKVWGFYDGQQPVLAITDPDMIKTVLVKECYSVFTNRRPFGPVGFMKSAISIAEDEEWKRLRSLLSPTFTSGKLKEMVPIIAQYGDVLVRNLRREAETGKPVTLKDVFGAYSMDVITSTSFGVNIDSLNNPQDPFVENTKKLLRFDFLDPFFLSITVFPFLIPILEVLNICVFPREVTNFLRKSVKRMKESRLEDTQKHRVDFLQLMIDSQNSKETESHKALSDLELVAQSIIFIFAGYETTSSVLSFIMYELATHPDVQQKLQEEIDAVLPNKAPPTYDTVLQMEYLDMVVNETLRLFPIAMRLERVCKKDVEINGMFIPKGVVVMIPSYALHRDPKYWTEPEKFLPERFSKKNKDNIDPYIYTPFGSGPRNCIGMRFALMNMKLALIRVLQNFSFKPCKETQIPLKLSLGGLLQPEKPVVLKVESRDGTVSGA

Protein RecA = biological target: T4, Protein RecA (Mycobacterium tuberculosis, UniProt P9WHJ3); assay: Fluorescence Cell-Free Homogeneous Dose Retest to Identify Inhibitors of RecA-Intein Splicing Activity. [Related pubchem assays (depositor defined):AID2097, AID2223, AID489010, AID492950]; format: functional
T4 sequence (P9WHJ3 whole entry): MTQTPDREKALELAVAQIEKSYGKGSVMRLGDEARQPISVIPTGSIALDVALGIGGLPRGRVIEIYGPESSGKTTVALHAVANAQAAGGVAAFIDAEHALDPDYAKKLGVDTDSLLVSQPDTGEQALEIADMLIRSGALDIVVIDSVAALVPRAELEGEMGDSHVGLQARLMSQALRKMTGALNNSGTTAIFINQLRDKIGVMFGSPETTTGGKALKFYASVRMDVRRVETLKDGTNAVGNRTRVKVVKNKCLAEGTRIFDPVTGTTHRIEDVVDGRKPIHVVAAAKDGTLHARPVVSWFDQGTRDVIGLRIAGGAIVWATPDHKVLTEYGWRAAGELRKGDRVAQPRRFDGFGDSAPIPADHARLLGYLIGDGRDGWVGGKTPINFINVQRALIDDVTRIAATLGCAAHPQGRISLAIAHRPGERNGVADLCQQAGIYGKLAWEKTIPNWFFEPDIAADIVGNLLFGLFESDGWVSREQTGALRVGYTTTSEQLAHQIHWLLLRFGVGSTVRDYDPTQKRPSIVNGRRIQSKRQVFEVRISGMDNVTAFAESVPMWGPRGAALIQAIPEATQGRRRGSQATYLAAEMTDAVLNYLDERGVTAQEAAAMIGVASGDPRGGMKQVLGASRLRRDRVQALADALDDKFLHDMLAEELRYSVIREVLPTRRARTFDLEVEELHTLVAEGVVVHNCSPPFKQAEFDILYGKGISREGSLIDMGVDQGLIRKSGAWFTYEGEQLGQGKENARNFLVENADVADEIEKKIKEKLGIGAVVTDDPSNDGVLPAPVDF

[13] = DRD fibroblast viability loss – cell-based, non-viral oncogenic, luminescence, dose response (AID 1934); format: functional; conditions: Homo sapiens
[14] = biological target: T5, Replicative DNA helicase DnaB (Mycobacterium tuberculosis, UniProt P9WMR3); assay: DnaB intein splicing inhibitors, dose response, biochemical, cell-free fluorescence (AID 449749); format: functional
T5 sequence (P9WMR3 whole entry): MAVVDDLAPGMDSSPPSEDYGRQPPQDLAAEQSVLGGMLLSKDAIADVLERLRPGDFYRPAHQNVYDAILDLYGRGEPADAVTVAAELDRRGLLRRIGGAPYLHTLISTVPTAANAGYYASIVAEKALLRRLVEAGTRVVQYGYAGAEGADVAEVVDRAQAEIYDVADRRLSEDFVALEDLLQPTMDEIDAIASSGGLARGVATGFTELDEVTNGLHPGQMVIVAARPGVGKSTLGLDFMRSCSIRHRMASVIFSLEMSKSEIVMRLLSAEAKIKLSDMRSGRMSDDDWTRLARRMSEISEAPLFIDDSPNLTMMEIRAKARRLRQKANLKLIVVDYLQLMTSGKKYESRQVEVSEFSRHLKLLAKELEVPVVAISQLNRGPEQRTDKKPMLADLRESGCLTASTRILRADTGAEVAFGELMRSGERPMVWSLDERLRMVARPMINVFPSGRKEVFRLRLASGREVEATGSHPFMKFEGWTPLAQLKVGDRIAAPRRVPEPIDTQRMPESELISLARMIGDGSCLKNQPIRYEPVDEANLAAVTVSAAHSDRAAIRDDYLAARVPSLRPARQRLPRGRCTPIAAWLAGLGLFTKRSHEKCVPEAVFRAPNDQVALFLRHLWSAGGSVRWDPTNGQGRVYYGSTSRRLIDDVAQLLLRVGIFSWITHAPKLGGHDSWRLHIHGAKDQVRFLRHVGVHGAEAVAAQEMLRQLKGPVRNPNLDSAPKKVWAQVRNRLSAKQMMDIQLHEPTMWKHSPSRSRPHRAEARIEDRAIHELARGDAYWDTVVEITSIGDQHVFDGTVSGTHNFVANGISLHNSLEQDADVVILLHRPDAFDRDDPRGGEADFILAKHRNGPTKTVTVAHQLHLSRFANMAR

Fatty acid synthase [15] = biological target: T2, Fatty acid synthase; assay: inhibition of human FAS-TE enzyme activity – biochemical, endpoint fluorescence intensity, uHTS hits, dose response (AID 624327); format: functional;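 further: fluorescence from hydrolysis of an O-methyl fluorescein acyl ester substrate by the enzyme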
[16] = Luminescence Cell-Based Dose Retest to Confirm Inhibitors of Cancer Stem Cells. [Related pubchem assays (depositor defined):AID2717, AID2721]; format: functional; conditions: Homo sapiens
[17] = viability loss in THP-1 monocytes – THP-1 cells, cytotoxicity control for Vif-APOBEC3G degradation inhibitor project, dose response (AID 1117359); format: functional; conditions: THP-1
[18] = biological target: T6, Type-1 angiotensin II receptor (Homo sapiens, UniProt P30556); assay: antagonism of angiotensin II type 1 receptor – cell-based, uHTS hits, selectivity assay for APJ receptor antagonist project, dose response (AID 463214); format: functional;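 further: antagonist potency against angiotensin II stimulated AT1 response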
T6 sequence (P30556 whole entry): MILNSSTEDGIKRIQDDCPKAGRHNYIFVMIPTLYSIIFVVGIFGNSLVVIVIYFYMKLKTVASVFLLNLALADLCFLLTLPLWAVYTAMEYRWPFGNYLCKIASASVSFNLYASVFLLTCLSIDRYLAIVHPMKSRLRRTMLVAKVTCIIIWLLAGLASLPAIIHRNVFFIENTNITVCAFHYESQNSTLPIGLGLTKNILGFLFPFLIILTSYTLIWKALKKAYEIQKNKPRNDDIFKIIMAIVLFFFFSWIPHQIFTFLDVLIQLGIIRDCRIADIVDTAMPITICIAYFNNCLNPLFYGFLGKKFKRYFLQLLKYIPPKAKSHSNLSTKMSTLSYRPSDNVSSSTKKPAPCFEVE

BJ [19] = assay: BJ-TERT fibroblast viability loss – cell-based, RAS-independent, luminescence, dose response (AID 1933); format: functional; conditions: Homo sapiens
CHO = CHO cell viability loss, potency – luminescence, cytotoxicity control for TLR9-MyD88 binding inhibitor project, dose response (AID 588339); format: functional, cell-based, hamster; conditions: Cricetulus griseus;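 further: CHO cells stably coexpressing TLR9 and MyD88 fusions from primary screen; compound exposure lasted 48 hours before viability readout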
[20] = biological target: Glucose-6-phosphate 1-dehydrogenase (Homo sapiens, UniProt P11413); assay: inhibition of Homo sapiens G6PD, dose series – biochemical, fluorescence, selectivity assay for P. falciparum G6PD inhibitor project, dose response (AID 504792); format: functional
Chain of Glucose-6-phosphate 1-dehydrogenase (P11413 whole entry): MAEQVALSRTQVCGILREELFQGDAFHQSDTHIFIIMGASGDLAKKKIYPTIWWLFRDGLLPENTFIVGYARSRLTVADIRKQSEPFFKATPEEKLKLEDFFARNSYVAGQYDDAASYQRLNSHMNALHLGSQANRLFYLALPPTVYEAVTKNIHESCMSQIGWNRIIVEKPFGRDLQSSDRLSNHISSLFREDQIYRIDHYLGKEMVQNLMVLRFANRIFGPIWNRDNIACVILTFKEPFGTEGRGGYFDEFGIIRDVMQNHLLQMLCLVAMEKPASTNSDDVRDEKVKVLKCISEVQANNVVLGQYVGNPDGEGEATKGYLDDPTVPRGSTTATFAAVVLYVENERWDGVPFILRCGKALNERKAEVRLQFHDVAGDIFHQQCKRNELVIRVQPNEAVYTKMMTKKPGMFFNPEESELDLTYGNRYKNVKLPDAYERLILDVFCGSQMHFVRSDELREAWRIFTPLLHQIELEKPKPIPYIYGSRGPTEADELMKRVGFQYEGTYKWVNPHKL

[21] = biological target: T3, Sentrin-specific protease 8; format: functional; remark: listed apart in the source
Beta Lactamase = Beta Lactamase (Pseudomonas aeruginosa, UniProt Q932Y6); assay: BLA reporter interference, concentration series – BLA reporter cells, FRET fluorescence, artefact control for TLR9-MyD88 binding inhibitor project, dose response (AID 588341); format: cell-based;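 further: cell based assay in CHO-K1 cells stably expressing beta-lactamase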
Chain of Beta Lactamase (Q932Y6 whole entry): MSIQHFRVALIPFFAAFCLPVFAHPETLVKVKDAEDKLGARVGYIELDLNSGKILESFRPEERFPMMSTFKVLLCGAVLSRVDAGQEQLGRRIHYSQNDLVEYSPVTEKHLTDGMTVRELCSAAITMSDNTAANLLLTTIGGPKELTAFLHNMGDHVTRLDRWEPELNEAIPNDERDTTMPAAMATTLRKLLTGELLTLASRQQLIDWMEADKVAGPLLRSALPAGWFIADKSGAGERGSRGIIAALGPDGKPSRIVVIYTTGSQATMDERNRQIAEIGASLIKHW

[22] = biological target: Dual specificity tyrosine-phosphorylation-regulated kinase 1A (Rattus norvegicus, UniProt Q63470); format: biochemical, Homo sapiens
[23] = biological target: T7, Heat shock factor protein 1 (Mus musculus, UniProt P38532); assay: enhancement of HSF1-driven luciferase signal – cell-based, NIH3T3, luminescence, dose retest, confirmation (AID 435004); format: functional;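 further: stress induced by proteasome inhibitor MG132 added 30 min after compound; luciferase reporter driven by HSF1 response element in NIH3T3 cells; actives raise luminescence as potentiators of the MG132 stress response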
T7 sequence (P38532 whole entry): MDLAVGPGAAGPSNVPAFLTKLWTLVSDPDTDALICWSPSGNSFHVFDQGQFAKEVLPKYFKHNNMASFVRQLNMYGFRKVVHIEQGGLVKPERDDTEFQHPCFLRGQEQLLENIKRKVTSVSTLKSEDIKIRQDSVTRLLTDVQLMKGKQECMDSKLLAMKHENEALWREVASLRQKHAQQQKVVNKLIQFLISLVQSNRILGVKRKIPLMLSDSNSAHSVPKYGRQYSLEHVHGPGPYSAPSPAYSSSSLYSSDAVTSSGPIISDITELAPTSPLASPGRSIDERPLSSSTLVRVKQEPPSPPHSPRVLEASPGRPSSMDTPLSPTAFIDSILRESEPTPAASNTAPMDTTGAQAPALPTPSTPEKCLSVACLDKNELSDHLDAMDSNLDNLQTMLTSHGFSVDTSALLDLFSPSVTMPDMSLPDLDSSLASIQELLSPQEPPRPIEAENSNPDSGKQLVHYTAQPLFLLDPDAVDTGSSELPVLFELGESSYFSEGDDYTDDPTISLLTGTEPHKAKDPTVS

Compound: Cc1ccccc1N1C(=O)NC(=O)/C(=C\c2c(-c3ccccc3)[nH]c3ccccc23)C1=O
- CC50 (Vero): 23.2 µM (active)
- IC50 (HEK293 [1]): 8.69 µM (active)
- EC50 (HEK293 [2]): 6.37 µM (active)
- IC50 (HEK293 [3]): > 20 µM (inactive)
- IC50 [4]: 11 µM (active)
- IC50 (HEK293 [5]): 15.4 µM (inactive)

Compound: CN(CCO)c1cc(Sc2nc3ccccc3s2)c2nonc2c1[N+](=O)[O-]
- EC50 (BJ [6]): 4.12 µM (active)
- AC50 (Cytochrome P450 2D6): 22.4 µM (inconclusive)
- EC50 (BJ [7]): 4.95 µM (inconclusive)
- AC50 [8]: 8.18 µM (active)
- AC50 [9]: 29.3 µM (active)
- IC50 (Fatty acid synthase [10]): 2.14 µM (active)
- AC50 [11]: 1.55 µM (active)
- EC50 (Beta-galactosidase): > 40 µM (inactive)
- IC50 [12]: 18.8 µM (active)
- AC50 (Cytochrome P450 3A4): 22.4 µM (inconclusive)
- EC50 (Protein RecA): 0.49 µM (active)
- EC50 [13]: 5.92 µM (active)
- AC50 [14]: 1.26 µM (active)
- IC50 (Fatty acid synthase [15]): 2.32 µM (active)
- AC50 [16]: 1.62 µM (active)
- CC50 [17]: > 40 µM (active)
- IC50 [18]: 2.08 µM (active)
- EC50 (BJ [19]): 1.96 µM (active)
- IC50 (CHO): 1.69 µM (active)
- IC50 [20]: > 80 µM (inactive)
- IC50 [21]: 28.1 µM (active)
- IC50 (Beta Lactamase): 8.89 µM (active)

Compound: COc1ccc(/C=c2\s/c(=C\C(=O)C(C)(C)C)[nH]c2=O)cc1O
- AC50 [22]: 4.65 µM (active)
- EC50 [23]: 41.8 µM (active)
